Test results as given in publication PMC4995014, “Identification of ABC Transporter Interaction of a Novel Cyanoquinoline Radiotracer and Implications for Tumour Imaging by Positron Emission Tomography” (PLoS ONE, 2016).

How the values were obtained:
[1] = test system: 3T3 cells; experiment: SRB cell viability assay in 3T3 cells; format: cell-based; settings: Mus musculus, NIH3T3, 72 h
Method: (§1) Cell viability by the sulforhodamine B (SRB) assay was used to assess cell growth and cytotoxicity of test compounds [29]. Cells were seeded at densities of 3,500 to 5,000 cells per well in 96 well plates overnight and pre-treated for 1 h with ABC transporter modulators: 10 μM fumitremorgin C (FTC; in MCF7MX and MCF7 cells), or 0.3 μM of zosuquidar (in 3T3 and 3T3-MDR1). Cells were then treated with test compounds for 72 h, at 37°C. After drug treatment, cells were fixed by addition of 50% trichloroacetic acid (TCA), and the plates washed and dried to allow staining with 0.4% solution of sulforhodamine B (Sigma) in 1% acetic acid for 30 minutes. Excess dye was removed upon washing with 1% acetic acid. Plates were dried and bound protein was solubilised upon addition of 150 μL of 10 mM Tris base buffer. Absorbance was measured at 540 nm using Thermo Multiskan-Ex plate reader. Cell viability versus compound concentration curves were plotted as a percentage of control cells. The concentration of drug that gave 50% inhibition in cell growth (GI50) was extrapolated from these curves using the sigmoid curve fit with variable slope in Prism (GraphPad Prism version 5.01, GraphPad Software, San Diego California USA). Three to six replicate wells were used for each drug concentration and experiments were carried out on three separate occasions for each compound.

[2] = test system: MCF7MX cells; experiment: SRB cell viability assay in MCF7MX cells (ABCG2 overexpressing); format: cell-based, human; settings: for fold increase in GI50 in the ABCG2 overexpressing cell line: GI50 MCF7MX over GI50 MCF7, without FTC; for GI50: Homo sapiens, MCF7/MX, 72 h, SRB
Method: as §1

[3] = test system: 3T3-MDR1 cells; experiment: SRB cell viability assay in 3T3-MDR1 cells (ABCB1 expressing); format: cell-based; settings: GI50 3T3-MDR1 over GI50 3T3, without zosuquidar
Method: as §1

[4] = test system: ABCB1 (MDR1); experiment: as above; format: cell-based; settings: mouse, 3T3-MDR1 cells (ABCB1 expressing), 72 h, SRB
Method: as §1

[5] = Caco2 transwell assay; format: in vitro ADME, human; settings: human; for efflux ratio at 120 min: Caco-2, no inhibitor, 10 μM cyanoquinoline or 50 μM vinblastine, read-out: efflux ratio (Papp B-A / Papp A-B)
Method: The caco2 transwell assay was performed to assess permeability. Cells were seeded at a density of 60,000 cells per well in 24 well transwell plates (Millipore, Billerica, Massachutsetts, USA), and maintained in DMEM supplemented with […] glucose (20% FBS, 1% penicillin/streptomycin, 1% glutamine) for 21 days at 37°C in 5% CO2. After 21 days the cells differentiate into enterocytes and express all three MDR proteins, ABCB1 and ABCG2 at the apical side and ABCC1 on the basal side. On day 21, cells were washed three times with Hank's Balanced Salt Solution (HBSS) (Fisher scientific, Loughborough, UK) and the trans-epithelial electric resistance (TERR) was measured using an Epithelial Voltohmmeter (EVOM) (World Precision Instruments, Sarasota, USA); only transwells with TERR of 400 Ω/cm^2 or above were used for the experiment. Cells were treated either at the apical (n = 3) or basal (n = 3) side of the transwell by addition of 10 μM of cyanoquinoline compound or 50 μM vinblastine prepared in a volume of 400 μL HBSS (compound added to apical well) or 800 μL of HBSS (added to basal well). When transport inhibitors FTC (10 μM) or zosuquidar (0.3 μM) were used, they were added to both the apical and basal wells 1 h prior to drug treatment. After 1 h pre-treatment the medium was removed and cells were treated with the compounds prepared in HBSS containing FTC or Zosuquidar.
Plates were incubated in shaker incubator at 37°C and 60 rpm for 120 min. After incubation, 200 μL aliquots from the apical and the basal wells were collected and analysed using high performance liquid chromatography (HPLC). Samples were run on a Millipore Waters HPLC system which included a 717 plus autosampler and 2487 dual wavelength absorbance detector system. The stationary phase comprised of a Phenomenex Luna C18 reverse phase column (150 X 4.6 mm; 5 μm particle size). The mobile phase comprised water (0.1% TFA) and acetonitrile (0.1% TFA) (80:20 v/v) at a flow rate of 1 mL/min for all compounds except vinblastine. For vinblastine, the stationary phase comprised a Supelcosil LC-ABZ reverse phase column (5 × 4.6 mm; 5 μm particle size). The mobile phase comprised water (0.1% formic acid) and methanol (90:10 to 10:90 v/v gradient over 20 min). Peak areas corresponding to the compounds of interest were recorded. Using standard curves the areas under the curve were converted into concentrations of compound. The permeability coefficient (Papp) was calculated using the following equation [30]: Papp = (dQ/dt)/A C0, where A is the surface area of the transwell membrane in cm^2 (= 0.33 cm^2), C0 is the drug concentration in the donor chamber at time t = 0 and dQ/dt is the rate of transfer of the compound to the receiver chamber, determined from the slope of the graph concentration (dQ) versus time (dt). Papp values corresponding to absorption and secretion were assessed and used to calculate efflux ratio. Efflux ratio =(Papp B−A)/(Papp A−B) Where Papp A-B = Papp absorption and Papp B-A = Papp secretion.
The integrity of the caco2 cell membrane was assessed for each well following the experiment by addition of a 100 μM solution of […] (Sigma) in HBSS to the apical side of the plate. The plates were placed in the shaker incubator for 1 h at 37°C and 60 rpm. Samples from the basal wells were transferred into a 96 well plate and the levels of […] were assessed by measuring with an excitation of 450 nm and an emission of 540 nm using the PerkinElmer Wallac 1420 counter.

[6] = test system: MCF7 cells; experiment: SRB cell viability assay in MCF7 cells; format: cell-based; settings: Homo sapiens, 72 h
Method: as §1

[7] = test system: MCF7 cells; experiment: Cell uptake assay in MCF7 cells; format: cell-based, human; settings: 1 h incubation with 0.22 MBq
Method: (§2) [^18F]FED6 and [^18F]FED20 were synthesised as previously reported. To increase specific radioactivity of [^18F]FED20, we modified the synthesis by decreasing the amount of alkyne precursor from 1 mg down to 0.5 mg. While this had the desired effect of increasing the specific activity from 7.3 GBq/μmol up to 52 GBq/μmol, the conversion of the alkyne to the triazole product dropped from > 95% down to 45%. Cells were seeded in 6 well plates and [^18F]FED6 (0.22 MBq) or [^18F]FED20 (0.55 MBq or 0.74 MBq) added to each well and incubated at 37°C for 1 h. Media were then removed and cells were washed twice with PBS. The cells were trypsinised and centrifuged for 3 minutes at 2000 rpm to obtain a pellet. The cell pellet was washed once with PBS and resuspended in 200 μL of RIPA buffer. Cell lysates were transferred to gamma counting tubes and the radioactivity in the pellet was measured on a Packard Cobra II gamma counter, (Perkin-Elmer, Waltham, Massachusetts, USA). Protein concentrations of samples were evaluated using Pierce® BCA Protein Assay Kit (Thermo Scientific, Waltham, Massachusetts, USA). Data were expressed as background- and decay-corrected counts per minute (CCPMA) per μg of cellular protein.

[8] = test system: 3T3 cells; experiment: Cell uptake assay in 3T3 cells; format: cell-based; settings: 1 h incubation with 0.22 MBq
Method: as §2

[9] = test system: H358 cells; experiment: Cell uptake assay in H358 cells; format: cell-based; settings: 1 h incubation with 0.22 MBq
Method: as §2

[10] = test system: 3T3-MDR1 cells; experiment: Cell uptake assay in 3T3-MDR1 cells; format: cell-based
Method: as §2

[11] = test system: MCF7MX cells; experiment: Cell uptake assay in MCF7MX cells; format: cell-based, human
Method: SiRNA transfections were carried out using ON TARGET plus-SMARTpool siRNA or non-targeting siRNA (Dharmacon, Lafayette, Louisianna, USA); ABCG2, L-009924-00-0005 and scramble (non-targeting) D-001810-10-05. Lipofectamine RNAiMAX (Invitrogen UK) was used as the transfection reagent and was prepared as indicated on the product protocol. Cells were seeded in black 96 well plates in antibiotic free media. On the day of transfection, siRNA and Lipofectamine were separately diluted in opti-MEM media, mixed in a 1 to 1 ratio and incubated at room temperature for 20 min; the siRNA-Lipofectamine complexes were then added to the cells. Fresh media containing 1% penicillin streptomycin was added to the cells after 24 h followed by Hoechst fluorescent assays at 72 h.
as §2

[12] = pre-treatment with 0.3 μM zosuquidar
[13] = 1 h pre-treatment with 10 μM FTC
[14] = with zosuquidar 0.3 μM (1 h pre-treatment), pre-treatment with 0.3 μM zosuquidar

Row | Structure (SMILES) | fold increase in GI50 in the ABCG2 overexpressing cell line [2] | GI50 [2, 13] | GI50 ([2]; without FTC) | efflux ratio at 120 min [5] | GI50 [6, 13] | GI50 ([6]; without FTC) | GI50 [1, 12] | GI50 ([1]; without zosuquidar) | fold increase in GI50 in the ABCB1 overexpressing cell line [3] | GI50 at 72 h [4, 14] | GI50 at 72 h ([4]; without zosuquidar) | other results
1 | CCOc1cc2ncc(C#N)c(Nc3ccc(F)c(Cl)c3)c2cc1NC(=O)/C=C/CN(C)C [EKB-569, pelitinib, reference compound] | 1.7 fold | 1.54 ± 0.06 µM | 4.28 ± 0.23 µM | > 3 | 2.55 ± 0.04 µM | 2.61 ± 0.07 µM | 1.15 ± 0.6 µM | 1.06 ± 0.6 µM | 5.4 fold | 2.7 ± 0.8 µM | 5.75 ± 0.7 µM | –
2 | CCOc1cc2ncc(C#N)c(Nc3ccc(F)c(Cl)c3)c2cc1NC(=O)/C=C/CNCc1cn(CC[18F])nn1 [[^18F]FED6, [^18F](2E)-N-{4-[(3-chloro-4-fluorophenyl)amino]-3-cyano-7-ethoxyquinolin-6-yl}-4-({[1-(2-fluoroethyl)-1H-1,2,3-triazol-4-yl]methyl}amino)-but-2-enamide] | – | – | – | – | – | – | – | – | – | – | – | protein normalised uptake in MCF7 cells [7]: 81 CCPMA/μg of protein; protein normalised uptake in 3T3 cells [8]: 22 CCPMA/μg of protein; protein normalised uptake in H358 cells [9]: 86 CCPMA/μg of protein; fold increase of uptake in 3T3-MDR1 cells following zosuquidar pre-treatment ([10]; 0.3 μM zosuquidar for 1 h): 19 fold; protein normalised uptake in 3T3-MDR1 cells ([10]; 1 h incubation with 0.22 MBq): 0.7 CCPMA/μg of protein; uptake in MCF7MX cells following ABCG2 siRNA ([11]; 25 nM ABCG2 siRNA 72 h, 1 h incubation with 0.22 MBq): 3.5 CCPMA/μg protein; uptake in scramble siRNA transfected MCF7MX cells ([11]; 25 nM scrambled siRNA 72 h, 1 h incubation with 0.22 MBq): 0.6 CCPMA/μg protein; fold increase of uptake in MCF7MX cells following FTC pre-treatment ([11]; 10 μM FTC for 1 h): 4 fold; uptake in MCF7MX cells following FTC pre-treatment ([11]; 10 μM FTC for 1 h, 1 h incubation with 0.22 MBq): 6 CCPMA/μg protein; uptake in MCF7MX cells following gefitinib pre-treatment ([11]; 10 μM gefitinib for 1 h, 1 h incubation with 0.22 MBq): 6.3 CCPMA/μg protein; protein normalised uptake in MCF7MX cells ([11]; 1 h incubation with 0.22 MBq): 7.7 CCPMA/μg of protein
3 | O=C1c2c(O)ccc(O)c2C(=O)c2c(NCCNCCO)ccc(NCCNCCO)c21 [Mitoxantrone, reference compound] | – | 22.8 ± 13.1 µM | 2500 ± 1440 µM | – | 6.62 ± 3.82 µM | 10.7 ± 6.18 µM | 197 ± 0.6 µM | 37 ± 0.8 µM | – | 57 ± 1 µM | 141 ± 1 µM | –

Now from value to compound, other results behind:

Row | fold increase in GI50 in the ABCG2 overexpressing cell line [2] | GI50 [2, 13] | GI50 ([2]; without FTC) | efflux ratio at 120 min [5] | GI50 [6, 13] | GI50 ([6]; without FTC) | Structure (SMILES) | GI50 [1, 12] | GI50 ([1]; without zosuquidar) | fold increase in GI50 in the ABCB1 overexpressing cell line [3] | GI50 at 72 h [4, 14] | GI50 at 72 h ([4]; without zosuquidar) | other results
4 | 3.2 fold | 10.3 ± 5.95 µM | 27.6 ± 15.9 µM | > 3 | 14.8 ± 8.54 µM | 14.9 ± 8.6 µM | CCOc1cc2ncc(C#N)c(Nc3ccc(F)c(Cl)c3)c2cc1NC(=O)/C=C/CNC [FED2] | 4.5 ± 0.8 µM | 7 ± 1.2 µM | 5.1 fold | 5.9 ± 0.6 µM | 36 ± 1.1 µM | –
5 | – | 0.00266 ± 0.00066 µM | 0.00208 ± 0.00041 µM | – | 0.00536 ± 0.00063 µM | 0.00512 ± 0.00074 µM | CC[C@]1(O)C[C@@H]2CN(CCc3c([nH]c4ccccc34)[C@@](C(=O)OC)(c3cc4c(cc3OC)N(C)[C@H]3[C@@](O)(C(=O)OC)[C@H](OC(C)=O)[C@]5(CC)C=CCN6CC[C@]43[C@@H]65)C2)C1 [Vinblastine, reference compound] | 0.0015 ± 0.0012 µM | 0.0018 ± 0.001 µM | – | 0.0011 ± 0.0011 µM | 0.219 ± 0.0008 µM | efflux ratio at 120 min, 50 μM ([5]; Caco-2, pre-treatment with zosuquidar, read-out: efflux (permeability) ratio after pre-treatment with zosuquidar): 1.7
6 | – | 10.1 ± 0.73 µM | 6.53 ± 0.34 µM | < 1 | 11.2 ± 1.11 µM | 11.4 ± 1.36 µM | CCOc1cc2ncc(C#N)c(Nc3ccc(F)c(Cl)c3)c2cc1N [FED14] | 14.8 ± 0.7 µM | 14.8 ± 0.7 µM | – | 12.2 ± 0.6 µM | 8.7 ± 0.7 µM | –
